Where a name gives a salt, the structure may show the parent alone.
Assay: Bulk density, tapped density and Carr Index (flowability) of powders and granules
Type: physicochemical
Details: for Carr Index: 100×(1−BD/TD), greater than 25 indicates poor flowability
Experimental: The Carr Index is calculated by the formula 100×(1−BD/TD) and is used as an indication of the flowability.

SMILES	Description (appearance of powder)	flowability (in words, from Carr Index)	BD (bulk density)	TD (tapped density)	Carr Index
COc1ccc2cc([C@H](C)C(=O)O)ccc2c1 [Naproxen Sodium, naproxen sodium]	very lumpy	poor flowability			
Cc1ncc(CO)c(CO)c1O.Cl [Pyridoxine Hydrochloride, pyridoxine hydrochloride]			0.44 g/mL	0.62 g/mL	30
Cc1ncc(C[n+]2csc(CCO)c2C)c(N)n1 [Thiamine hydrochloride, thiamine hydrochloride]			0.26 g/mL	0.46 g/mL	44
